The values below come from PubChem BioAssay (NCI).

Among the test systems are A549 NSCLC; HOP-92 NSCLC; NCI-H23 lung; OVCAR-5 ovarian; SN12C renal; TK-10 renal; UACC-62 melanoma; CAKI-1 renal; SK-MEL-5 melanoma; A498 renal.
Holding throughout (assay): NCI tumour cell line growth inhibition, 48 h

SMILES strings stand for the structures. Several values for one entry are separate records, joined by “and”; a condition that tells them apart may be missing. Identical values can stand only once.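 Five concentrations, 48 hours, 96-well plates. GI50: concentration for 50% inhibition of growth. TGI: concentration producing complete growth inhibition.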 Where only a bound is given, the exact number is not on record here.

For `N.N.N.N.N.N.O=N[O-].[Br-].[Co+3].[Co+3].[OH3+].[OH3+]`, the GI50 in the assay on A549 NSCLC, in the assay on HOP-92 NSCLC, in the assay with NCI-H23 lung, in the assay on OVCAR-5 ovarian, in the assay on SN12C renal and with TK-10 renal was more than 100 µM in each case. For the same compound, the GI50 with UACC-62 melanoma was more than 100 µM. The TGI in the assay on A549 NSCLC, in the assay with HOP-92 NSCLC, in the assay on NCI-H23 lung, in the assay on OVCAR-5 ovarian, with SN12C renal and with TK-10 renal was more than 100 µM throughout. This compound also yielded a TGI with UACC-62 melanoma of more than 100 µM.

On to `Cc1nn(-c2ccccc2)c(-c2ccccc2[N+](=O)[O-])c1CC#N`, for which the TGI with A549 NSCLC, in the assay on CAKI-1 renal, in the assay on HOP-92 NSCLC, in the assay on NCI-H23 lung, in the assay with OVCAR-5 ovarian and in the assay on SK-MEL-5 melanoma was more than 100 µM each time. In addition, the TGI in the assay on SN12C renal, in the assay with TK-10 renal and in the assay on UACC-62 melanoma was more than 100 µM in each case.

Consider `COc1ccccc1Nc1nc(NNC(=O)Cc2ccccc2)nc(NNC(=O)c2ccncc2)n1`, for which the TGI in the assay on A549 NSCLC, in the assay with CAKI-1 renal, in the assay with HOP-92 NSCLC, in the assay with NCI-H23 lung, in the assay with SK-MEL-5 melanoma and in the assay with SN12C renal was more than 10 µM in each case. Further, the TGI in the assay on TK-10 renal and in the assay with UACC-62 melanoma was more than 10 µM throughout.

Turning to `Cc1ccc(SC(=O)N2C(=S)NC(=NC3CCCCC3)C23CCCCC3)cc1`, the TGI in the assay with A549 NSCLC, in the assay with CAKI-1 renal, in the assay on HOP-92 NSCLC, in the assay on NCI-H23 lung, in the assay on OVCAR-5 ovarian and in the assay with SK-MEL-5 melanoma was more than 100 µM in each case. For the same compound, the TGI in the assay with SN12C renal, in the assay with TK-10 renal and in the assay with UACC-62 melanoma was more than 100 µM each time.

As for `OC12CC/C(=N/OCc3ccccc3)CC1c1ccccc12` (stereo unspecified), the TGI in the assay with A549 NSCLC, with CAKI-1 renal, with NCI-H23 lung, with OVCAR-5 ovarian, in the assay with SK-MEL-5 melanoma and in the assay on SN12C renal was more than 100 µM each time. Moreover, the TGI in the assay on TK-10 renal and in the assay on UACC-62 melanoma was more than 100 µM in each case.

Consider `O=[N+]([O-])c1nccn1COCCBr`, for which the TGI in the assay on A549 NSCLC, in the assay with CAKI-1 renal, in the assay on HOP-92 NSCLC, in the assay with NCI-H23 lung, with OVCAR-5 ovarian and in the assay with SK-MEL-5 melanoma was more than 100 µM in each case. In addition, the TGI in the assay with SN12C renal, in the assay with TK-10 renal and with UACC-62 melanoma was more than 100 µM each time.

In the case of `COc1cc(Br)c(C=Nc2cccc3ccc(OS(=O)(=O)c4cccc([N+](=O)[O-])c4)cc23)cc1OC`, the TGI in the assay on A498 renal is more than 100 µM; with A549 NSCLC it was more than 100 µM; in the assay on CAKI-1 renal, more than 100 µM; in the assay on HOP-92 NSCLC it was 35.3 µM; with NCI-H23 lung it was 44.8 µM; with OVCAR-5 ovarian it was more than 100 µM. Moreover, the TGI in the assay on SK-MEL-5 melanoma, with SN12C renal and in the assay on UACC-62 melanoma was more than 100 µM in each case.

In the case of `c1cc(CNC2C3CCC(C3)C2c2c[nH]c3ccccc23)cc(CNC2C3CCC(C3)C2c2c[nH]c3ccccc23)c1` (stereo unspecified), the TGI with A549 NSCLC is more than 100 µM; with HOP-92 NSCLC it was 2.33 µM and 2.63 µM; in the assay with NCI-H23 lung, 3.34 µM and 2.88 µM; in the assay with OVCAR-5 ovarian it was 3.39 µM and 3.4 µM; in the assay on SK-MEL-5 melanoma it was 3.29 µM; in the assay on SN12C renal it was 31.5 µM. The TGI with TK-10 renal worked out at 3.39 µM; with UACC-62 melanoma, 3.04 µM. The GI50 is 1.09 µM and 1.29 µM with HOP-92 NSCLC; 1.47 µM with NCI-H23 lung; 14.5 µM with SN12C renal.

Turning to `CN1C(=O)C(Cl)(C(Cl)(Cl)S(=O)(=O)O)C(=O)c2ccccc21` (stereo unspecified), the TGI with A498 renal, in the assay on A549 NSCLC, in the assay with CAKI-1 renal, in the assay with HOP-92 NSCLC, with NCI-H23 lung and in the assay on SK-MEL-5 melanoma was more than 100 µM throughout. Further, the TGI in the assay with SN12C renal, in the assay with TK-10 renal and in the assay on UACC-62 melanoma was more than 100 µM in each case.

As to `CC(=O)OC1[C@H]2c3cc4c(cc3CN3CCC(=C[C@@H]1O)C23)OCO4` (stereo partly specified), the TGI in the assay on A549 NSCLC, with NCI-H23 lung, in the assay with SN12C renal, with TK-10 renal and in the assay with UACC-62 melanoma was more than 100 µM throughout.

Consider `BrC1(Br)C2/C=C\CCCCC21` (stereo unspecified), for which the TGI in the assay with A498 renal, in the assay on A549 NSCLC, in the assay on CAKI-1 renal, in the assay on HOP-92 NSCLC, in the assay on NCI-H23 lung and in the assay with OVCAR-5 ovarian was more than 100 µM in each case. Besides, the TGI in the assay on SN12C renal and in the assay on TK-10 renal was more than 100 µM throughout.

Turning to `COC(=O)C1=C(C(=O)OC)SC(=C(Cl)C(=S)Sc2ccccc2N)S1`, the GI50 in the assay with A549 NSCLC is 22.3 µM; in the assay with CAKI-1 renal it was 41.6 µM; in the assay with HOP-92 NSCLC, 46.4 µM; in the assay on NCI-H23 lung, 10.1 µM; in the assay with OVCAR-5 ovarian it was 19.3 µM; with SK-MEL-5 melanoma, 19.9 µM. In addition, the GI50 with SN12C renal is 20.5 µM; with TK-10 renal, 30.9 µM; in the assay with UACC-62 melanoma, 19.9 µM. Besides, the TGI was 59.2 µM with A549 NSCLC; more than 100 µM in the assay on CAKI-1 renal; more than 100 µM with HOP-92 NSCLC; 25.9 µM in the assay on NCI-H23 lung; 41.5 µM in the assay on OVCAR-5 ovarian; 49.2 µM in the assay with SK-MEL-5 melanoma. Also, the results for the TGI in the assay with SN12C renal, in the assay with TK-10 renal and with UACC-62 melanoma were 59.4 µM, 64.3 µM and 78.4 µM, respectively.

For the compound `C[N+]1(C)C/C(=C\c2ccncc2)C(=O)/C(=C/c2ccncc2)C1`, the TGI with A498 renal, with A549 NSCLC, in the assay with CAKI-1 renal, in the assay with HOP-92 NSCLC, in the assay on OVCAR-5 ovarian and with SK-MEL-5 melanoma was more than 100 µM each time. The TGI in the assay on SN12C renal, in the assay on TK-10 renal and in the assay on UACC-62 melanoma was more than 100 µM each time.
